{
  "source": "patent US9198431B2",
  "about": "“Use of N6-(2-hydroxyethyl)-adenosine in preparation of crop pesticide” (Zhejiang Subtropical Crops Research Institute, priority 2013, dated 2015)",
  "assay_type_in_all_cases": "in vivo",
  "key": {"[1]": {"system": "diamondback moth larvae", "test": "Selective antifeeding (feeding suppression), leaf disk dipping", "conditions": "for Selective antifeeding rate: third-instar larvae", "method": "(§1) Test Method: • Preparing N6-(2-hydroxyethyl)-adenosine solutions of various concentrations; • Diluting the 20% N6-(2-hydroxyethyl)-adenosine suspension to make solutions with 1000 mg/L, 800 mg/L, 600 mg/L, 400 mg/L, and 200 mg/L active ingredient concentrations, respectively, for testing the roles of N6-(2-hydroxyethyl)-adenosine in stomach poisoning of diamondback moth larvae. • Diluting the 20% N6-(2-hydroxyethyl)-adenosine suspending agent to make solutions with 300 mg/L, 250 mg/L, 200 mg/L, 150 mg/L and 100 mg/L active ingredient concentrations, respectively, to test the roles of N6-(2-hydroxyethyl)-adenosine in suppressing feeding and retarding development of diamondback moth larvae.\n(§2) Round leaf disk dipping method was employed in this test. Prepare leaf disks out of cabbage leaves with a round hole puncher (d=2 cm), and soak the disks in N6-(2-hydroxyethyl)-adenosine solutions with different concentrations for 30 seconds. Then, take the leaf disks out and drain the excessive solution with clean blotting paper to prepare them for treatments. Use 0.1% triton solution as a blank control.\nPut a good-size piece of filter paper in a Petri-dish, and then put two processed and two control leaf disks into the same Petri-dish, which are arrayed in a cross fashion. Inoculate three third-instar diamondback moth larvae that have been subjected to 4-hour starvation treatments onto the leaf disks and seal the dish. Prepare 10 replicas for each treatment group. After 48 hours, pick five replicas with 0% death rate to measure the leaf areas that have been consumed by the larvae with a grid paper and calculate the average leaf consumption areas. Antifeeding Rate (%)=[(Leaf Consumption Area in the Control Group−Leaf Consumption Area in the Treatment Group)÷(Leaf Consumption Area in the Control Group+Leaf Consumption Area in the Treatment Group)]×100."}, "[2]": {"system": "diamondback moth larvae", "test": "Non-selective antifeeding, leaf disk dipping", "conditions": "third-instar larvae", "method": "as §1, §2\nPut a good-sized piece of filter paper in a Petri-dish, and then put two processed leaf disks in the same Petri-dish and another two control leaf disks in a different dish. Inoculate three third-instar diamondback moth larvae that have been subjected to 4-hour starvation treatments onto the leaf disks and seal the dish. Prepare 10 replicas for each treatment group. After 48 hours, pick five replicas with 0% death rate to measure the leaf areas that have been consumed by the larvae with a grid paper and calculate the average leaf consumption areas. Non-Selective Antifeeding Rate (%)=[(Leaf Consumption Area in the Control Group—Leaf Consumption Area in the Treatment Group)÷Leaf Consumption Area in the Control Group]×100."}, "[3]": {"system": "diamondback moth larvae", "test": "Development retardation (weight gain inhibition) of diamondback moth larvae", "conditions": "for Average Weight (10 Tested Larvae) (mg) Δ4d: weight gain", "method": "as §1\nSoak the cabbage leaves (7 cm in diameters) in the prepared solutions for 30 seconds, take the leaves out, leave them to dry, and then transfer the dried leaves to a Petri-dish (9 cm in diameter) cushioned with a wet filter paper. Inoculate 15 weighed third-instar diamondback moth larvae onto each Petri-dish. […] Prepare four replicas for each treatment group to determine the effects of various solutions in inhibiting the weight gain of the larvae.\nWeight-Gain Inhibition Rate (%)=[(the Average Weight Gain of the Control Group−the Average Weight Gain of the Treatment Group)÷the Average Weight Gain of the Control Group]×100.\n(§3) The results obtained were analyzed for significances of difference using Ducan's New Multiple Range Method. The various lowercase letters following the data in the same column indicate significant differences at a level of 0.05 level (P<0.05). The various capital letters following the data in the same column indicate significant differences at a level of 0.01 (P<0.01)."}, "[4]": {"system": "aphids", "test": "Insecticidal activity on aphids", "conditions": "experimental data omitted"}, "[5]": {"system": "diamondback moth larvae", "test": "Stomach poisoning (oral toxicity) of diamondback moth larvae", "conditions": "for Average Corrected Death Rate (%), stomach poisoning: 96 h", "method": "Test Insects: Artificial subculture breeding of diamondback moths collected at Xinqiao greenhouse vegetable field in Wenzhou was carried out in a thermostat illumination incubator and the second-instar larvae breeds of a consistent size and color were picked for tests.\nas §1\nCut healthy, fresh cabbage leaves in small pieces that are 7 cm in diameters. Smear these pieces with various spore suspensions and leave them to dry naturally. Repeat the smearing process 3 times, and then put the leaves in plastic Petri-dishes with tiny holes that are 2 cm in diameter. Cover the dishes with nylon membranes to keep the leaves fresh.\nPick out healthy indoor bred third-instar diamondback moth larvae of similar sizes with a writing brush, and inoculate them onto the cabbage leaves. Make 4 replicas of the treatments, each of which should contain 20 tested larvae. Cultivate the dishes in an incubator set to 25±1° C., 75˜80% relative humidity and 16 L:8D illumination. Observe and record the number of larvae that die of infection every day. Use 0.1% triton solution as a blank control and use the Abbott formula for correction of death rates. Corrected Death Rate (%)=[(Death Rate of the Treatment Group−Death Rate of the Control Group)/(1−Death Rate of the Control Group)]×100.\nas §3"}},
  "data": [
    {"compound": "OCCNc1ncnc2c1ncn2[C@@H]1O[C@H](CO)[C@@H](O)[C@H]1O", "note": "[N6-(2-hydroxyethyl)-adenosine]", "values": [
      {"measurement": "Selective antifeeding rate", "setting": "[1]; 200 mg/L, 48 hour", "result": 71.30, "unit": "%"},
      {"measurement": "Selective antifeeding rate", "setting": "[1]; 250 mg/L, 48 hours", "result": 83.47, "unit": "%"},
      {"measurement": "Selective antifeeding rate", "setting": "[1]; 300 mg/L, 48 hours", "result": 83.82, "unit": "%"},
      {"measurement": "Feeding capacity of the tested larvae (FIGS. 2 and 3)", "setting": "[1]; 300, 250, 200, 150 and 100 mg/L", "result": "clear declines in their feeding capacity"},
      {"measurement": "Non-selective antifeeding rate", "setting": "[2]; 200 mg/L, 48 hour", "result": 65.75, "unit": "%"},
      {"measurement": "Non-selective antifeeding rate", "setting": "[2]; 250 mg/L, 48 hours", "result": 75.73, "unit": "%"},
      {"measurement": "Non-selective antifeeding rate", "setting": "[2]; 300 mg/L, 48 hours", "result": 77.64, "unit": "%"},
      {"measurement": "Average Weight (10 Tested Larvae) (mg) Δ4d", "setting": "[3]; 100 mg/L", "result": 4.13, "unit": "mg"},
      {"measurement": "Average Weight (10 Tested Larvae) (mg) Δ4d", "setting": "[3]; 150 mg/L", "result": 2.40, "unit": "mg"},
      {"measurement": "Average Weight (10 Tested Larvae) (mg) Δ4d", "setting": "[3]; 200 mg/L", "result": 1.33, "unit": "mg"},
      {"measurement": "Average Weight (10 Tested Larvae) (mg) Δ4d", "setting": "[3]; 250 mg/L", "result": 0.65, "unit": "mg"},
      {"measurement": "Average Weight (10 Tested Larvae) (mg) Δ4d", "setting": "[3]; 300 mg/L", "result": 0.48, "unit": "mg"},
      {"measurement": "inhibition at 100 µg/mL", "setting": "[3]; Plutella xylostella, 72 h, 100 mg/L, 3 days after treatment, third-instar larvae, read-out: Weight Gain Inhibition Rate (%)", "result": 18.3, "unit": "%"},
      {"measurement": "inhibition at 150 µg/mL", "setting": "[3]; Plutella xylostella, 72 h, 150 mg/L, 3 days after treatment, third-instar larvae, read-out: Weight Gain Inhibition Rate (%)", "result": 52.5, "unit": "%"},
      {"measurement": "inhibition at 200 µg/mL", "setting": "[3]; Plutella xylostella, 72 h, 200 mg/L, 3 days after treatment, third-instar larvae, read-out: Weight Gain Inhibition Rate (%)", "result": 73.8, "unit": "%"},
      {"measurement": "inhibition at 250 µg/mL", "setting": "[3]; Plutella xylostella, 72 h, 250 mg/L, 3 days after treatment, third-instar larvae, read-out: Weight Gain Inhibition Rate (%)", "result": 87.1, "unit": "%"},
      {"measurement": "inhibition at 300 µg/mL", "setting": "[3]; Plutella xylostella, 72 h, 300 mg/L, 3 days after treatment, third-instar larvae, read-out: Weight Gain Inhibition Rate (%)", "result": 90.6, "unit": "%"},
      {"measurement": "Insecticidal activity on aphids", "setting": "[4]", "result": "able to kill aphids"},
      {"measurement": "Average Corrected Death Rate (%), stomach poisoning", "setting": "[5]; 800 mg/L", "result": 84.21, "unit": "%"},
      {"measurement": "Average Corrected Death Rate (%), stomach poisoning", "setting": "[5]; 1000 mg/L", "result": 86.84, "unit": "%"},
      {"measurement": "Post-treatment death rates of the larvae", "setting": "[5]; 25-hour post-treatment, 1000 to 200 mg/L", "result": "below 30%"},
      {"measurement": "Lethal effect on diamondback moth", "setting": "[5]; in vivo", "result": "strong lethal effect"}
    ]}
  ]
}
